# In the kinase profiling compilation of Christmann-Franck et al. (2016):
# What was measured:
# Assay in all cases: radiometric filter-binding kinase assay, Kinase HotSpot
# Conditions in all cases: compound 0.5 µM; ATP 10 µM
# ACVR1 (human) = ACVR1 (human) (UniProt Q04771)
# ACVRL1 (human) = ACVRL1 (human) (UniProt P37023)
# BMX (human) = BMX (human) (UniProt P51813)
# BTK (human) = BTK (human) (UniProt Q06187)
# CAMKK1 (human) = CAMKK1 (human) (UniProt Q8N5S9)
# CDC42BPB (human) = CDC42BPB (human) (UniProt Q9Y5S2)
# CDK4 CCND3 (human) = CDK4 CCND3 (human) (UniProt P30281+P11802)
# CLK1 (human) = CLK1 (human) (UniProt P49759)
# CSNK1E (human) = CSNK1E (human) (UniProt P49674)
# DCLK2 (human) = DCLK2 (human) (UniProt Q8N568)
# DDR2 (human) = DDR2 (human) (UniProt Q16832)
# DYRK1B (human) = DYRK1B (human) (UniProt Q9Y463)
# EPHB4 (human) = EPHB4 (human) (UniProt P54760)
# FES (human) = FES (human) (UniProt P07332)
# FLT3 (human) = FLT3 (human) (UniProt P36888)
# GSG2 (human) = GSG2 (human) (UniProt Q8TF76)
# INSR (human) = INSR (human) (UniProt P06213)
# JAK3 JH1 JH2 (human) = JAK3 JH1 JH2 (human) (UniProt P52333)
# LCK (human) = LCK (human) (UniProt P06239)
# MAP3K14 (human) = MAP3K14 (human) (UniProt Q99558)
# MAPK13 (human) = MAPK13 (human) (UniProt O15264)
# MKNK2 (human) = MKNK2 (human) (UniProt Q9HBH9)
# MYLK2 (human) = MYLK2 (human) (UniProt Q9H1R3)
# NEK11 (human) = NEK11 (human) (UniProt Q8NG66)
# NEK9 (human) = NEK9 (human) (UniProt Q8TD19)
# PAK2 (human) = PAK2 (human) (UniProt Q13177)
# PASK (human) = PASK (human) (UniProt Q96RG2)
# PHKG2 (human) = PHKG2 (human) (UniProt P15735)
# PIM1 (human) = PIM1 (human) (UniProt P11309)
# PLK1 (human) = PLK1 (human) (UniProt P53350)
# PRKCA (human) = PRKCA (human) (UniProt P17252)
# PRKCE (human) = PRKCE (human) (UniProt Q02156)
# PRKCH (human) = PRKCH (human) (UniProt P24723)
# PRKCZ (human) = PRKCZ (human) (UniProt Q05513)
# PTK6 (human) = PTK6 (human) (UniProt Q13882)
# RET (human) = RET (human) (UniProt P07949)
# RPS6KA4 KD2 (human) = RPS6KA4 KD2 (human) (UniProt O75676)
# RPS6KB2 (human) = RPS6KB2 (human) (UniProt Q9UBS0)
# SRPK3 (human) = SRPK3 (human) (UniProt Q9UPE1)
# STK17A (human) = STK17A (human) (UniProt Q9UEE5)
# STK25 (human) = STK25 (human) (UniProt O00506)
# ULK2 (human) = ULK2 (human) (UniProt Q8IYT8)
# Sequence of CLK1 (human) (P49759 whole entry, looked up): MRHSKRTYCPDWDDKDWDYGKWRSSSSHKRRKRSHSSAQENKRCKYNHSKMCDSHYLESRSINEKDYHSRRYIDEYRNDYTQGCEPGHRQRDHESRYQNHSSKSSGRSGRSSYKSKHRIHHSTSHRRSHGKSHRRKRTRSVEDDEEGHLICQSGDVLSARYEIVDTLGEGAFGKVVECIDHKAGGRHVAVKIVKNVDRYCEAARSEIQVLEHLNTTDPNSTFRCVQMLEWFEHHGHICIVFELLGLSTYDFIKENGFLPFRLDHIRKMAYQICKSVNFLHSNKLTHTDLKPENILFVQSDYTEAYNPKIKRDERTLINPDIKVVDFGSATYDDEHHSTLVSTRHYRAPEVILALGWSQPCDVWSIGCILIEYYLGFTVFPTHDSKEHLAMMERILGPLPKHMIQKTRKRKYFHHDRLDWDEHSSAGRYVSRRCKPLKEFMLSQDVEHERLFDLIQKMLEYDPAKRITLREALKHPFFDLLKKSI
# Sequence of PTK6 (human) (Q13882 whole entry, looked up): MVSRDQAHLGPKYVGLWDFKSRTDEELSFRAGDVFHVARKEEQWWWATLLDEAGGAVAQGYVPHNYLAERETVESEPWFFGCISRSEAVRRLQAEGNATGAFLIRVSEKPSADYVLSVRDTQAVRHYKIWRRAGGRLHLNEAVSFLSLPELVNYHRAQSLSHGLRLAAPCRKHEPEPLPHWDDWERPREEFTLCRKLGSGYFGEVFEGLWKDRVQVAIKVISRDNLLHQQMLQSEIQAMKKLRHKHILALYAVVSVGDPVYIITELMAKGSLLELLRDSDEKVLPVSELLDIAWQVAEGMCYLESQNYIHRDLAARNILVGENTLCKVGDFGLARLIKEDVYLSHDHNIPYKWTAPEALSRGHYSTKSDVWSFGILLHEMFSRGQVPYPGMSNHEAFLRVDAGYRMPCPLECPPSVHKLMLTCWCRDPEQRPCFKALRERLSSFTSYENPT
# Sequence of INSR (human) (P06213 whole entry, looked up): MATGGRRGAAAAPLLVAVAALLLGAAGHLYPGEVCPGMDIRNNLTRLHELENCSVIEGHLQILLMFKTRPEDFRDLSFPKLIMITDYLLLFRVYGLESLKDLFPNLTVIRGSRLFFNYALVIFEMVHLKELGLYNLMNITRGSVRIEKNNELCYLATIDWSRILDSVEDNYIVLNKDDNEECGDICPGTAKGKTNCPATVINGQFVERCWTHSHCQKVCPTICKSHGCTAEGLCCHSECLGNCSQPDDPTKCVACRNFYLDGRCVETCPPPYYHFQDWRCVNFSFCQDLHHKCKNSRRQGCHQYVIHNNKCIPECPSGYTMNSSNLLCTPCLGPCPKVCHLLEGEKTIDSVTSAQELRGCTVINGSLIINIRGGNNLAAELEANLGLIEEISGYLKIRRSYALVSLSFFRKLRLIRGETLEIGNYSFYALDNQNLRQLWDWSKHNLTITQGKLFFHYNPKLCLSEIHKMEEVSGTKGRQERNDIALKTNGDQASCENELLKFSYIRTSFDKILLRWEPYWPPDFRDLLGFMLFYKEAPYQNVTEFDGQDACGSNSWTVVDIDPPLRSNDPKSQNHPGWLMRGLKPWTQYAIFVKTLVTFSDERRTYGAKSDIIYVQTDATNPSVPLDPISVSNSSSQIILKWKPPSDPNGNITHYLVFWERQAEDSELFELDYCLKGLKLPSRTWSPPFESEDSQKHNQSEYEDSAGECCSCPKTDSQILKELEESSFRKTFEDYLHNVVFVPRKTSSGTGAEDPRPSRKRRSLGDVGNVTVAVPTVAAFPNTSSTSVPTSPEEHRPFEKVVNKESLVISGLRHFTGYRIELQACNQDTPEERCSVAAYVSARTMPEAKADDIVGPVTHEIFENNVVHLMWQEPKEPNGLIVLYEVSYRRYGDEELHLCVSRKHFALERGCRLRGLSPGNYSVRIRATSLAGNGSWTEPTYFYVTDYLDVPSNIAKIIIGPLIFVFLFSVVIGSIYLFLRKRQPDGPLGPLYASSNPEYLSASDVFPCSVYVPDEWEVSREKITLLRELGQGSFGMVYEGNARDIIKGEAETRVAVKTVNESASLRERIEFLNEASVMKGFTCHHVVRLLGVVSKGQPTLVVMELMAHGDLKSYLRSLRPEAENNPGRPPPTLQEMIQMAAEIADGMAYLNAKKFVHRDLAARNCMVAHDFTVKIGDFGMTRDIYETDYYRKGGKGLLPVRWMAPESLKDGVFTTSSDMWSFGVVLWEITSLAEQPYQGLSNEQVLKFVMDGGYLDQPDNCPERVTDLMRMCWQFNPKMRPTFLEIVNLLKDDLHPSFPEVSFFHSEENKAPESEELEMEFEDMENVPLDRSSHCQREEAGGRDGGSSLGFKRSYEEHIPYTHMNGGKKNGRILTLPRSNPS
# Sequence of CDK4 CCND3 (human) (P11802 whole entry, looked up): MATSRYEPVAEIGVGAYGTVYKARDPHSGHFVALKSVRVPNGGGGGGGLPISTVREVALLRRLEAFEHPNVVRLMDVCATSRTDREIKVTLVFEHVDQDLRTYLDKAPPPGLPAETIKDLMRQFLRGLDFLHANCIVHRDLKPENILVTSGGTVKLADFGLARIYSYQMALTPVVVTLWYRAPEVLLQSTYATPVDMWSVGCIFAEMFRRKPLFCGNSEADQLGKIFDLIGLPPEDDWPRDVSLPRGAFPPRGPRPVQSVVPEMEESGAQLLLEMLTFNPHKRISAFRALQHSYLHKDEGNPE
# Sequence of CDK4 CCND3 (human) (P30281 whole entry, looked up): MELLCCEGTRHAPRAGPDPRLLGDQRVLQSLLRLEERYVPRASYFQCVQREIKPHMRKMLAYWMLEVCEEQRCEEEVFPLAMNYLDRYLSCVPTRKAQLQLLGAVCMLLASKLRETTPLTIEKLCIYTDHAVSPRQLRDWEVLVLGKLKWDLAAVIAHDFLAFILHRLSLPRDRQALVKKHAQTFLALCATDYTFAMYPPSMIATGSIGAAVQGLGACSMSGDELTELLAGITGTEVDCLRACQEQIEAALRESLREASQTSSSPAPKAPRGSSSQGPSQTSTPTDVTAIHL
# Sequence of EPHB4 (human) (P54760 whole entry, looked up): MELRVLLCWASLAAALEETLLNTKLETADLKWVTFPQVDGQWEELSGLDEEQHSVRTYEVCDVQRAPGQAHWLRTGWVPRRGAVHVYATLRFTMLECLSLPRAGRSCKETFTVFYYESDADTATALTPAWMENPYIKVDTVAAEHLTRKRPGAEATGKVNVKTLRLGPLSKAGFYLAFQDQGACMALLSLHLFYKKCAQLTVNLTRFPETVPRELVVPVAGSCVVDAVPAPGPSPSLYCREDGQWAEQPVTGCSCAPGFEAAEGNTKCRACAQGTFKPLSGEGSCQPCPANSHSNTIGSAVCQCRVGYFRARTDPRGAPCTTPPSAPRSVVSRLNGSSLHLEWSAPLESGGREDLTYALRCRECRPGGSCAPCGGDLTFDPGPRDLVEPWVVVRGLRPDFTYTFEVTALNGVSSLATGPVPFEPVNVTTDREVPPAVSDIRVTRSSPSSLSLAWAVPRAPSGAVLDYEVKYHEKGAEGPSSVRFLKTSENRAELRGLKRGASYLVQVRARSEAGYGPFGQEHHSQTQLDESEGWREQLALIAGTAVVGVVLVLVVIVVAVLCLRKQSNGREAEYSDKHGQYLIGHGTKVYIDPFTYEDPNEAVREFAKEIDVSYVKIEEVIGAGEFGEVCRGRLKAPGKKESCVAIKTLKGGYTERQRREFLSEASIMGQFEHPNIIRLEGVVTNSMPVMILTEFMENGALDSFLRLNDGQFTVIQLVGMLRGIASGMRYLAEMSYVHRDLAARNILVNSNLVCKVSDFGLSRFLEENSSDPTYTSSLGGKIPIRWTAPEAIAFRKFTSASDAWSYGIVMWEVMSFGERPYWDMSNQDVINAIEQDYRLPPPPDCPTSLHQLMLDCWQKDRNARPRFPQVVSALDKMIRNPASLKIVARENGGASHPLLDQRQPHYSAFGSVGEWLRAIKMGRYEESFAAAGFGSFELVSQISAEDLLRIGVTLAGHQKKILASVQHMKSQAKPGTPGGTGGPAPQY
# Sequence of NEK9 (human) (Q8TD19 whole entry, looked up): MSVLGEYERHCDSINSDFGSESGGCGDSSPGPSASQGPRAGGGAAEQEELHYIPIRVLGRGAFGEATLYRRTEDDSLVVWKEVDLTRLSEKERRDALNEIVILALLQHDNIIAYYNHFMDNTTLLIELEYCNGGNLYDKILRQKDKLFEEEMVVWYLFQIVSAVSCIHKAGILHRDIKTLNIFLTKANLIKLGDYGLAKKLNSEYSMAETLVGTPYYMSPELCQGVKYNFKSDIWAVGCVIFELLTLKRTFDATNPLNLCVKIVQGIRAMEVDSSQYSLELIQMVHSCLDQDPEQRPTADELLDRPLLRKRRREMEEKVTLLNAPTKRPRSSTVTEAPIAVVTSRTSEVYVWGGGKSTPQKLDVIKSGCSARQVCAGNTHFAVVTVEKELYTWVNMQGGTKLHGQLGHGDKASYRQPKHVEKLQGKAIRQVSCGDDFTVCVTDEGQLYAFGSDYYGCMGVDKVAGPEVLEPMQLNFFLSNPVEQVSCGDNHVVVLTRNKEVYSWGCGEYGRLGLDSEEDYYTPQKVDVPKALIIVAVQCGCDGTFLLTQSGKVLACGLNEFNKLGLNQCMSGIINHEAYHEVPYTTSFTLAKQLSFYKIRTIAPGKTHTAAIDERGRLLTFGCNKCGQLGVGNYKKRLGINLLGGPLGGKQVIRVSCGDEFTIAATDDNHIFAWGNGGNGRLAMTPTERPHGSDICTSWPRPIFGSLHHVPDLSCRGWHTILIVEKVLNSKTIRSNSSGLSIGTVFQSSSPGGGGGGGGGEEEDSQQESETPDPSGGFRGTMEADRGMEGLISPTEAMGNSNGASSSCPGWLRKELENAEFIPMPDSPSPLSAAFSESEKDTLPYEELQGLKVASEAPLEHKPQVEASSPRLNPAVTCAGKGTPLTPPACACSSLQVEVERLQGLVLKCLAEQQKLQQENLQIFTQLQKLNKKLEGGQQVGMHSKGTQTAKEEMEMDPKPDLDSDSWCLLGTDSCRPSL
compound,measurement,setting,value
O=c1cc(N2CCNCC2)oc2c(-c3ccccc3)cccc12,residual activity,ACVR1 (human),90.3%
same,residual activity,ACVRL1 (human),106%
same,residual activity,BMX (human),98%
same,residual activity,BTK (human),85.7%
same,residual activity,CAMKK1 (human),105%
same,residual activity,CDC42BPB (human),97.5%
same,residual activity,CDK4 CCND3 (human),101%
same,residual activity,CLK1 (human),102%
same,residual activity,CSNK1E (human),101%
same,residual activity,DCLK2 (human),116%
same,residual activity,DDR2 (human),95.5%
same,residual activity,DYRK1B (human),99.2%
same,residual activity,EPHB4 (human),101%
same,residual activity,FES (human),95.4%
same,residual activity,FLT3 (human),108%
same,residual activity,GSG2 (human),94.3%
same,residual activity,INSR (human),101%
same,residual activity,JAK3 JH1 JH2 (human),96.9%
same,residual activity,LCK (human),104%
same,residual activity,MAP3K14 (human),110%
same,residual activity,MAPK13 (human),104%
same,residual activity,MKNK2 (human),107%
same,residual activity,MYLK2 (human),97.3%
same,residual activity,NEK11 (human),97.9%
same,residual activity,NEK9 (human),102%
same,residual activity,PAK2 (human),99.8%
same,residual activity,PASK (human),93%
same,residual activity,PHKG2 (human),96.9%
same,residual activity,PIM1 (human),92.4%
same,residual activity,PLK1 (human),96.6%
same,residual activity,PRKCA (human),99.1%
same,residual activity,PRKCE (human),104%
same,residual activity,PRKCH (human),97%
same,residual activity,PRKCZ (human),116%
same,residual activity,PTK6 (human),99.2%
same,residual activity,RET (human),106%
same,residual activity,RPS6KA4 KD2 (human),117%
same,residual activity,RPS6KB2 (human),91%
same,residual activity,SRPK3 (human),94.4%
same,residual activity,STK17A (human),98.4%
same,residual activity,STK25 (human),116%
same,residual activity,ULK2 (human),108%
O=C(Nc1ccc(Cl)cc1)c1ccccc1NCc1ccncc1,residual activity,ACVR1 (human),97.2%
same,residual activity,ACVRL1 (human),98.9%
same,residual activity,BMX (human),90.5%
same,residual activity,BTK (human),98.9%
same,residual activity,CAMKK1 (human),98.5%
same,residual activity,CDC42BPB (human),79.9%
same,residual activity,CDK4 CCND3 (human),94.2%
same,residual activity,CLK1 (human),102%
same,residual activity,CSNK1E (human),92.5%
same,residual activity,DCLK2 (human),95.2%
same,residual activity,DDR2 (human),88.9%
same,residual activity,DYRK1B (human),106%
same,residual activity,EPHB4 (human),89.6%
same,residual activity,FES (human),96.6%
same,residual activity,FLT3 (human),91.5%
same,residual activity,GSG2 (human),95.5%
same,residual activity,INSR (human),88%
same,residual activity,JAK3 JH1 JH2 (human),87.8%
same,residual activity,LCK (human),93.3%
same,residual activity,MAP3K14 (human),114%
same,residual activity,MAPK13 (human),95.6%
same,residual activity,MKNK2 (human),82.3%
same,residual activity,MYLK2 (human),99.5%
same,residual activity,NEK11 (human),104%
same,residual activity,NEK9 (human),91.2%
same,residual activity,PAK2 (human),91%
same,residual activity,PASK (human),97.1%
same,residual activity,PHKG2 (human),97.1%
same,residual activity,PIM1 (human),98.9%
same,residual activity,PLK1 (human),103%
same,residual activity,PRKCA (human),96.7%
same,residual activity,PRKCE (human),97%
same,residual activity,PRKCH (human),96.2%
same,residual activity,PRKCZ (human),100%
same,residual activity,PTK6 (human),63.6%
same,residual activity,RET (human),58.9%
same,residual activity,RPS6KA4 KD2 (human),90.2%
same,residual activity,RPS6KB2 (human),105%
same,residual activity,SRPK3 (human),100%
same,residual activity,STK17A (human),94.7%
same,residual activity,STK25 (human),91.6%
same,residual activity,ULK2 (human),104%
